Measurements taken from patent US9669031B2, “MNK inhibitors and methods related thereto” (eFFECTOR Therapeutics, Inc., priority 2014, dated 2017).
Where a name gives a salt, the structure may show the parent alone.

Key:
Mnk1 = Mnk1 (Homo sapiens (Human), UniProt Q9BUB5); assay: biochemical
[1] = female, Balb/c, mouse, in vivo, po, 10 mg/kg
in vivo = conditions: female, Balb/c, mouse, po, 10 mg/kg; for AUC(0-t): AUClast; for half-life: T½
[2] = Pharmacokinetics in Balb/c mice, single intravenous bolus administration; type: in vivo; conditions: intravenous bolus 1 mg/kg, formulation 10DMA/15EtOH/35PEG300/40D5W, gender F; for AUC(0-inf) / half-life / Vd: female, mouse, plasma; for AUC(0-inf): read-out: AUCINF_obs; for half-life: read-out: T½ (converted); for Vd: read-out: Vss
Mnk2 = Mnk2 (Homo sapiens (Human), UniProt Q9HBH9); assay: biochemical
Sequence of Mnk2 (Q9HBH9 whole entry): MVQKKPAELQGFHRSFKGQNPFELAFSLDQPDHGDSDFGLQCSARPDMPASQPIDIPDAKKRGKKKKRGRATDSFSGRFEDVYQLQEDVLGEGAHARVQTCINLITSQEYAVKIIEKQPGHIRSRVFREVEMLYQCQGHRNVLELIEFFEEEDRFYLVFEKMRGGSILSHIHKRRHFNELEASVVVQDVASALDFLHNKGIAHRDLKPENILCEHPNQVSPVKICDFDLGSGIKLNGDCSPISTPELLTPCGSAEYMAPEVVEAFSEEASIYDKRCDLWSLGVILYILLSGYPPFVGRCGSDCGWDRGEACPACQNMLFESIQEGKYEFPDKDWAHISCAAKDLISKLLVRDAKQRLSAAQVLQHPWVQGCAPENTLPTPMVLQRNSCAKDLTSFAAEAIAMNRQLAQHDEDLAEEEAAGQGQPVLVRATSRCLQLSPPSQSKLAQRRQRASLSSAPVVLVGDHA

Sequence of Mnk1 (Q9BUB5 whole entry): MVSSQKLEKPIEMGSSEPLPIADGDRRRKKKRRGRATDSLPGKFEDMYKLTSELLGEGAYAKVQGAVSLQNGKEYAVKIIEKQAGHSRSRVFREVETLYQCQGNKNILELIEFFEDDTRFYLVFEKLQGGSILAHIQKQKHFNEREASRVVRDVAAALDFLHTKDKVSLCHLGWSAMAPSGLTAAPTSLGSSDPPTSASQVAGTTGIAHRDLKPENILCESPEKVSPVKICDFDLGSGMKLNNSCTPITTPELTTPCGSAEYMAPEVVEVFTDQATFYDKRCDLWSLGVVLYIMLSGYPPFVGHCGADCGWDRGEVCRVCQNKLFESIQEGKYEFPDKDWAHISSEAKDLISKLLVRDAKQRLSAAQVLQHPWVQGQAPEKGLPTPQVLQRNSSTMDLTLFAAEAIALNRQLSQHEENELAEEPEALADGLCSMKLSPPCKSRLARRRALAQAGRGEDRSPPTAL

SMILES | IC50 (Mnk1) | Cmax (in vivo) | Tmax (in vivo) | half-life (in vivo) | other results
O=C1NC2(CCNC2)n2c1ccc(Nc1ccncn1)c2=O (centres unmarked) [Cpd. No. 26, 6-(pyrimidin-4-ylamino)-1H-spiro[imidazo[1,5-a]pyridine-3,3′-pyrrolidine]-1,5(2H)-dione] | 10 to 100 nM | – | – | – | –
CC1(c2cc(F)cc(Cl)c2)NC(=O)c2ccc(Nc3ccncn3)c(=O)n21 (centres unmarked) [Cpd. No. 28, 3-(3-chloro-5-fluorophenyl)-3-methyl-6-(pyrimidin-4-ylamino)-2,3-dihydroimidazo[1,5-a]pyridine-1,5-dione] | 10 to 100 nM | – | – | – | –
CC1(c2cc(Cl)cc(Cl)c2)NC(=O)c2ccc(Nc3ccncn3)c(=O)n21 (centres unmarked) [Cpd. No. 33, 3-(3,5-dichlorophenyl)-3-methyl-6-(pyrimidin-4-ylamino)-2,3-dihydroimidazo[1,5-a]pyridine-1,5-dione] | 10 to 100 nM | – | – | – | –
Cl.O=C1NC2(CCCNC2)n2c1c(Cl)cc(Nc1cc(NC(=O)C3CC3)ncn1)c2=O (centres unmarked) [Cpd. No. 60, N-(6-((8-chloro-1,5-dioxo-1,5-dihydro-2H-spiro[imidazo[1,5-a]pyridine-3,3′-piperidin]-6-yl)amino)pyrimidin-4-yl)cyclopropanecarboxamide hydrochloride] | < 10 nM | 36 ng/mL | 60 min | 133 min | Tlast [1]: 4 h; AUC(0-t) (in vivo): 78.2 ng·h/mL
O=C1NC2(CNC2)n2c1c(Cl)cc(Nc1cc(NC(=O)C3CC3)ncn1)c2=O [Cpd. No. 86, N-[6-[(8-chloro-1,5-dioxo-spiro[2H-imidazo[1,5-a]pyridine-3,3′-azetidine]-6-yl)amino]pyrimidin-4-yl]cyclopropanecarboxamide hydrochloride] | < 10 nM | – | – | – | –
CC1(C)NC(=O)c2c(Cl)cc(Nc3cc(N)ncn3)c(=O)n21 [Cpd. No. 88, 6-[(6-aminopyrimidin-4-yl)amino]-8-chloro-3,3-dimethyl-2H-imidazo[1,5-a]pyridine-1,5-dione] | – | 810 ng/mL | 30 min | 178 min | Tlast [1]: 8 h; AUC(0-inf) [2]: 273 ng·h/mL; half-life [2]: 78 min; Vd [2]: 3.03 L/kg; Cl_obs [2]: 61 mL/min/kg; AUC(0-t) (in vivo): 2040 ng·h/mL
Cc1cc(Nc2cc(N)ncn2)c(=O)n2c1C(=O)NC2(C)c1cccc(Cl)c1 (centres unmarked) [Cpd. No. 92, 6-[(6-aminopyrimidin-4-yl)amino]-3-(3-chlorophenyl)-3,8-dimethyl-2H-imidazo[1,5-a]pyridine-1,5-dione] | < 10 nM | – | – | – | –
Nc1cc(Nc2cc(Cl)c3n(c2=O)C2(CCCC2)NC3=O)ncn1 [Cpd. No. 94, 6-[(6-aminopyrimidin-4-yl)amino]-8-chloro-spiro[2H-imidazo[1,5-a]pyridine-3,1′-cyclopentane]-1,5-dione] | < 10 nM | 1800 ng/mL | 30 min | 120 min | Tlast [1]: 8 h; AUC(0-inf) [2]: 812 ng·h/mL; half-life [2]: 349 min; Vd [2]: 12.2 L/kg; Cl_obs [2]: 20.5 mL/min/kg; AUC(0-t) (in vivo): 6070 ng·h/mL
Cc1cc(Nc2cc(N)ncn2)c(=O)n2c1C(=O)NC21CCCC1.Cl [Cpd. No. 98, 6-[(6-aminopyrimidin-4-yl)amino]-8-methyl-spiro[2H-imidazo[1,5-a]pyridine-3,1′-cyclopentane]-1,5-dione hydrochloride] | – | 1200 ng/mL | 18 min | 186 min | Tlast [1]: 8 h; AUC(0-inf) [2]: 358 ng·h/mL; half-life [2]: 107 min; Vd [2]: 3.56 L/kg; Cl_obs [2]: 46.6 mL/min/kg; AUC(0-t) (in vivo): 4180 ng·h/mL
Cl.Nc1cc(Nc2cc(Cl)c3n(c2=O)C2(CCC(F)(F)CC2)NC3=O)ncn1 [Cpd. No. 99, 6-[(6-aminopyrimidin-4-yl)amino]-8-chloro-4′,4′-difluoro-spiro[2H-imidazo[1,5-a]pyridine-3,1′-cyclohexane]-1,5-dione hydrochloride] | < 10 nM | 400 ng/mL | 18 min | 96 min | IC50 (Mnk2): < 10 nM; Tlast [1]: 8 h; AUC(0-t) (in vivo): 1380 ng·h/mL
Cc1cc(Nc2cc(N)ncn2)c(=O)n2c1C(=O)NC2(C)c1cccc(F)c1 (centres unmarked) [Cpd. No. 101, 6-((6-aminopyrimidin-4-yl)amino)-3-(3-fluorophenyl)-3,8-dimethyl-2,3-dihydroimidazo[1,5-a]pyridine-1,5-dione] | < 10 nM | – | – | – | –
Cc1cc(Nc2cc(N)ncn2)c(=O)n2c1C(=O)NC2(C)C.Cl [Cpd. No. 102, 6-((6-aminopyrimidin-4-yl)amino)-3,3,8-trimethyl-2,3-dihydroimidazo[1,5-a]pyridine-1,5-dione hydrochloride] | – | 1800 ng/mL | 18 min | 84 min | IC50 (Mnk2): < 10 nM
Cc1cc(Nc2cc(N)ncn2)c(=O)n2c1C(=O)NC21CCC(F)(F)CC1 [Cpd. No. 103, 6-[(6-aminopyrimidin-4-yl)amino]-4′,4′-difluoro-8-methyl-spiro[2H-imidazo[1,5-a]pyridine-3,1′-cyclohexane]-1,5-dione hydrochloride] | < 10 nM | – | – | – | –
CC(C)(C)C1(C)NC(=O)c2c(Cl)cc(Nc3cc(N)ncn3)c(=O)n21 (centres unmarked) [Cpd. No. 105, 6-[(6-aminopyrimidin-4-yl)amino]-3-tert-butyl-8-chloro-3-methyl-2H-imidazo[1,5-a]pyridine-1,5-dione hydrochloride] | < 10 nM | – | – | – | –
Cc1cc(Nc2cc(N)ncn2)c(=O)n2c1C(=O)NC21CCCCC1 [Cpd. No. 107, 6′-((6-aminopyrimidin-4-yl)amino)-8′-methyl-2′H-spiro[cyclohexane-1,3′-imidazo[1,5-a]pyridine]-1′,5′-dione] | – | 950 ng/mL | 60 min | 318 min | Tlast [1]: 8 h; AUC(0-inf) [2]: 502 ng·h/mL; half-life [2]: 175 min; Vd [2]: 3.21 L/kg; Cl_obs [2]: 33.2 mL/min/kg; AUC(0-t) (in vivo): 2760 ng·h/mL
Cl.Cl.Nc1cc(Nc2cc(Cl)c3n(c2=O)C2(CCNCC2)NC3=O)ncn1 [Cpd. No. 108, 6-((6-aminopyrimidin-4-yl)amino)-8-chloro-2H-spiro[imidazo[1,5-a]pyridine-3,4′-piperidine]-1,5-dione dihydrochloride] | < 10 nM | 44 ng/mL | 18 min | 18 min | –
Nc1cc(Nc2cc(Cl)c3n(c2=O)C2(CCc4ccc(Cl)cc42)NC3=O)ncn1 (centres unmarked) [Cpd. No. 111, 6-[(6-aminopyrimidin-4-yl)amino]-6′,8-dichloro-spiro[2H-imidazo[1,5-a]pyridine-3,1′-indane]-1,5-dione hydrochloride] | < 10 nM | – | – | – | –
CC1(C2CCCC2)N(C#N)C(=O)c2ccc(Nc3cc(N)ncn3)c(=O)n21 (centres unmarked) [Cpd. No. 118, 6-[(6-aminopyrimidin-4-yl)amino]-3-cyclopentyl-3-methyl-1,5-dioxo-imidazo[1,5-a]pyridine-2-carbonitrile] | – | – | – | – | IC50 (Mnk2): < 10 nM
O=c1c(Nc2ccncn2)ccc2n1C1(CCCCC1)NC2=S [Cpd. No. 131, 6′-(pyrimidin-4-ylamino)-1′-thioxo-1′,2′-dihydro-5′H-spiro[cyclohexane-1,3′-imidazo[1,5-a]pyridin]-5′-one] | 10 to 100 nM | – | – | – | –
CC1(C)NC(=O)c2c(Cl)cc(Nc3ncnc4cnccc34)c(=O)n21 [Cpd. No. 165, 8-chloro-3,3-dimethyl-6-(pyrido[3,4-d]pyrimidin-4-ylamino)-2,3-dihydroimidazo[1,5-a]pyridine-1,5-dione] | 10 to 100 nM | – | – | – | –
Cc1cc(Nc2cc(N)ncn2)c(=O)n2c1C(=O)NC21CCCN(C)C1 (centres unmarked) [Cpd. No. 170, 6-[(6-aminopyrimidin-4-yl)amino]-1′,8-dimethyl-spiro[2H-imidazo[1,5-a]pyridine-3,3′-piperidine]-1,5-dione] | < 10 nM | – | – | – | –
